Measured values: patent EP0934745B1, “Use of androsterone derivatives for inhibiting DNA binding of ap-1 and airway smooth muscle proliferation” (CHARLOTTE-MECKLENBURG HOSPITAL doing business as Carolinas …, priority 1998, dated 1999)

Legend:
c-fos = assay: Expression of c-fos protein (immunoblot) and mRNA (RT-PCR) after FBS stimulation; format: cell-based, rat; conditions: pretreated 2 hours with 10 µM (Figures 7A-7C)
Protocol: To determine if 16α-BrEA impaired expression of early response genes important for cellular proliferation, confluent 75-cm^2 Petri dishes of airway smooth muscle cells were growth arrested by incubation for 24 hours in DMEM with 0.5% FBS. Monolayers were pretreated 2 hours with 10 µM 16α-BrEA or DMSO vehicle, and stimulated by exposure to DMEM with 10% FBS for 30 minutes. Cells were then lysed and c-fos mRNA was measured by the reverse transcriptase-polymerase chain reaction, as described below. To study whether levels of c-fos protein were affected, confluent monolayers on 6-well plates were growth arrested for 24 hours in DMEM with 0.5% FBS. Cells were then pretreated 2 hours with 16α-BrEA or DMSO vehicle and stimulated with 10% FBS in DMEM for 15, 30 and 60 minutes. Cells were then lysed and c-fos protein was assayed by immunoblotting as described below.
For measurement of c-fos protein, monolayers were placed on ice, washed twice with cold DPBS, scraped into 0.5 ml boiling buffer (10% [vol/vol] glycerol and 2% [wt/vol] sodium dodecyl sulfate [SDS] in 83 mM Tris, pH 6.8) and sonicated. Aliquots were removed for protein determination, bromophenol blue and β-mercaptoethanol were added and lysates were boiled and stored as outlined above. […]

BEAS-2B cells = assay: Interleukin-8 secretion by cultured human respiratory epithelium (ELISA); format: cell-based; conditions: 1 hr pretreatment
Protocol: J. Physiol. […] J. Physiol. […] Statistical Analysis. […] Significance was assumed at p < 0.05.
After 24 hours (for TNF stimulated cells) or 6 hours (for ROFA stimulated cells) media was collected and centrifuged to remove debris. […] Results are means ± standard errors of 4-6 experiments per treatment group. DMSO vehicle, as an antioxidant, reduces IL-8 secretion (a known effect) but BrEA inhibits much more profoundly.

With `C[C@]12CC[C@H](O)C[C@@H]1CC[C@@H]1[C@@H]2CC[C@]2(C)C(=O)[C@H](Br)C[C@@H]12` [16α-BrEA, 16α-bromoepiandrosterone] the “stimulation of c-fos protein or mRNA in response to 10% FBS” value (c-fos) was “did not reduce”, the IL-8 (BEAS-2B cells; ROFA Stimulated BEAS Cells (ROFA 50 µg/ml, 6 hr), 25 µM, ROFA + DMSO 410 ± 18) was 123 ± 5 pg/mL and the IL-8 (BEAS-2B cells; TNF Stimulated BEAS Cells (TNFα 40 ng/ml, 24 hr), 2 µM, TNF + DMSO 93 ± 14) was 104 ± 31 pg/mL. It also gave an IL-8 (BEAS-2B cells; TNF Stimulated BEAS Cells (TNFα 40 ng/ml, 24 hr), 10 µM, TNF + DMSO 93 ± 14) of 52 ± 18 pg/mL and an IL-8 (BEAS-2B cells; TNF Stimulated BEAS Cells (TNFα 40 ng/ml, 24 hr), 50 µM, TNF + DMSO 93 ± 14) of 27 ± 2 pg/mL.
